Data on 55 molecules can be found in ChEMBL document CHEMBL3862024, “2-Phenylbenzo[b]furans: Synthesis and promoting activity on estrogen biosynthesis” (Bioorg Med Chem Lett, 2016).

One data set can be described thus: Induction of estrogen biosynthesis in aromatase overexpressing HEK293A cells assessed as increase in 17beta-estradiol levels at 50 uM preincubated for 24 hrs followed by testosterone addition measured after 24 hrs by magnetic particle-based ELISA relative to egonol gentiobioside. In kind it is functional, Homo sapiens, HEK293-A.
Conditions: not given
In the case of `c1ccc(-c2cc3ccccc3o2)cc1`, the “fold change (FC)” value was over 0.6.

Turning to `COc1cc(Cl)cc2cc(-c3ccc(F)cc3)oc12`, the “fold change (FC)” value was over 0.6.

`COc1ccc(-c2cc3cc(Br)cc(OC)c3o2)cc1`: the “fold change (FC)” value is over 0.6.

For the molecule `COc1cc(-c2cc3cc(Cl)ccc3o2)cc(OC)c1OC`, the “fold change (FC)” value is over 0.6.

For `COc1cccc2cc(-c3ccc4c(c3)OCO4)oc12`, the “fold change (FC)” value is on record as over 0.6.

In the case of `Clc1ccc2oc(-c3ccc(OCc4ccccc4)cc3)cc2c1`, the “fold change (FC)” value was over 0.6.

With `COc1ccc(-c2cc3cc(Br)cc(OC)c3o2)cc1O`, the “fold change (FC)” value was over 0.6.

Turning to `COc1cccc(-c2cc3cc(Br)cc(OC)c3o2)c1`, the “fold change (FC)” value is on record as over 0.6.

Consider `Fc1ccc(-c2cc3ccccc3o2)cc1`, for which the “fold change (FC)” value is given as over 0.6.

For `COc1cccc2cc(-c3ccc(Cl)cc3)oc12`, the “fold change (FC)” value is listed as over 0.6.

As for `COc1ccc(OC)c(-c2cc3cc(SC)cc(OC)c3o2)c1`, the “fold change (FC)” value is recorded as over 0.6.

For `COc1cccc(-c2cc3ccccc3o2)c1`, the “fold change (FC)” value is given as over 0.6.

For the molecule `COc1cccc(-c2cc3cc(Cl)cc(Cl)c3o2)c1`, the “fold change (FC)” value is recorded as over 0.6.

Regarding `COc1cc(CCCO)c(Br)c2cc(-c3ccc4c(c3)OCO4)oc12`, the “fold change (FC)” value is on record as over 0.6.

On to `COc1cc(Br)cc2cc(-c3ccc([N+](=O)[O-])cc3)oc12`, for which the “fold change (FC)” value is listed as over 0.6.

For the molecule `COc1cc(CCCOC(=O)c2ccccc2)cc2cc(-c3ccc4c(c3)OCO4)oc12`, the “fold change (FC)” value was over 0.6.

Consider `COc1cc(CCCCl)cc2cc(-c3ccc4c(c3)OCO4)oc12`, for which the “fold change (FC)” value is reported as over 0.6.

A further data set in a line: Cytotoxicity against aromatase overexpressing HEK293A cells assessed as effect on cell proliferation at 10 to 50 uM. In kind it is toxicity, cell-based. The following applies: human, hek293-a.
For the molecule `c1ccc(-c2cc3ccccc3o2)cc1`, the Activity entry was “Non-Toxic”.

Consider `COc1cccc2cc(-c3ccccc3)oc12`, for which the Activity result was “Non-Toxic”.

For the molecule `COc1ccc(-c2cc3cccc(OC)c3o2)cc1OC`, the Activity entry was “Non-Toxic”.

For `COc1ccc(-c2cc3ccccc3o2)cc1`, the Activity result is recorded as “Non-Toxic”.

For the molecule `COc1ccc(-c2cc3cc(Cl)ccc3o2)cc1`, the Activity entry was “Non-Toxic”.

Consider `COc1cc(Cl)cc2cc(-c3ccc(F)cc3)oc12`, for which the Activity entry is reported as “Non-Toxic”.

With `COc1cc(Cl)cc2cc(-c3ccc(Cl)cc3)oc12`, the Activity entry is reported as “Non-Toxic”.

Regarding `COc1cccc2cc(-c3ccc([N+](=O)[O-])cc3)oc12`, the Activity entry was “Non-Toxic”.

`COc1ccc(-c2cc3cc(Br)cc(OC)c3o2)cc1`: the Activity entry is listed as “Non-Toxic”.

With `COc1cc(Cl)cc2cc(-c3ccccc3)oc12`, the Activity entry is given as “Non-Toxic”.

With `COc1cc(-c2cc3cc(Cl)ccc3o2)cc(OC)c1OC`, the Activity entry was “Non-Toxic”.

Turning to `COc1ccc(-c2cc3cc(Br)cc(OC)c3o2)cc1OC`, the Activity result is recorded as “Non-Toxic”.

Regarding `O=[N+]([O-])c1ccc(-c2cc3cc(Cl)cc(Cl)c3o2)cc1`, the Activity entry is on record as “Non-Toxic”.

As for `COc1cc(CCCOC(C)=O)c(C=O)c2cc(-c3ccc4c(c3)OCO4)oc12`, the Activity result is listed as “Non-Toxic”.

`COc1cccc2cc(-c3ccc4c(c3)OCO4)oc12`: the Activity entry is “Non-Toxic”.

`Clc1ccc2oc(-c3ccc(OCc4ccccc4)cc3)cc2c1`: the Activity result is “Non-Toxic”.

For the molecule `COc1ccc(-c2cc3cc(Cl)ccc3o2)cc1OC`, the Activity result is reported as “Non-Toxic”.

Regarding `COc1ccccc1-c1cc2cc(Cl)ccc2o1`, the Activity result was “Non-Toxic”.

With `COc1cc(SC)cc2cc(-c3ccc(Cl)cc3)oc12`, the Activity result is “Non-Toxic”.

`COc1cc(CCCO)c(Br)c2c(Br)c(-c3ccc4c(c3)OCO4)oc12`: the Activity result is “Non-Toxic”.

Turning to `COc1ccc(-c2cc3cc(Br)cc(OC)c3o2)cc1O`, the Activity entry was “Non-Toxic”.

Turning to `Clc1ccc(-c2cc3cc(Cl)ccc3o2)cc1`, the Activity result was “Non-Toxic”.

Take `COc1cccc(-c2cc3cc(Br)cc(OC)c3o2)c1`: the Activity result is “Non-Toxic”.

Consider `Fc1ccc(-c2cc3ccccc3o2)cc1`, for which the Activity entry is listed as “Non-Toxic”.

Regarding `COc1cccc2cc(-c3ccc(Cl)cc3)oc12`, the Activity entry is given as “Non-Toxic”.

With `COc1ccc(-c2cc3cccc(OC)c3o2)cc1`, the Activity result was “Non-Toxic”.

Consider `COc1ccc(-c2cc3ccccc3o2)cc1OC`, for which the Activity result is “Non-Toxic”.

For the molecule `COc1ccc(OC)c(-c2cc3cc(SC)cc(OC)c3o2)c1`, the Activity result is given as “Non-Toxic”.

`COc1ccc(-c2cc3cc(Cl)cc(Cl)c3o2)cc1OC`: the Activity entry was “Non-Toxic”.

On to `COc1cccc(-c2cc3ccccc3o2)c1`, for which the Activity entry was “Non-Toxic”.

Regarding `Clc1cc(Cl)c2oc(-c3ccccc3)cc2c1`, the Activity entry was “Non-Toxic”.

For `COc1cccc(-c2cc3cc(Cl)cc(Cl)c3o2)c1`, the Activity result is given as “Non-Toxic”.

`COc1cc(CCCO)c(Br)c2cc(-c3ccc4c(c3)OCO4)oc12`: the Activity entry was “Non-Toxic”.

For the molecule `O=[N+]([O-])c1ccc(-c2cc3cc(Cl)ccc3o2)cc1`, the Activity entry is on record as “Non-Toxic”.

On to `COc1cc(-c2cc3cc(Br)cc(OC)c3o2)ccc1O`, for which the Activity result was “Non-Toxic”.

In the case of `COc1ccccc1-c1cc2cc(Cl)cc(Cl)c2o1`, the Activity entry is “Non-Toxic”.

In the case of `COc1cccc(-c2cc3cccc(OC)c3o2)c1`, the Activity entry is reported as “Non-Toxic”.

Regarding `COc1cc(SC)cc2cc(-c3ccc(F)cc3)oc12`, the Activity result is given as “Non-Toxic”.

For `COc1cc(Br)cc2cc(-c3ccc([N+](=O)[O-])cc3)oc12`, the Activity entry was “Non-Toxic”.

In the case of `COc1cc(CCCOC(C)=O)cc2c(C=O)c(-c3ccc4c(c3)OCO4)oc12`, the Activity result is on record as “Non-Toxic”.

In the case of `COc1cc(Br)cc2cc(-c3ccc4c(c3)OCO4)oc12`, the Activity result was “Non-Toxic”.

Take `COc1c(Br)c(CCCO)c(Br)c2c(Br)c(-c3ccc4c(c3)OCO4)oc12`: the Activity result is “Non-Toxic”.

For the molecule `COc1ccc(-c2cc3cc(Cl)cc(Cl)c3o2)cc1`, the Activity result is reported as “Non-Toxic”.

For the molecule `c1ccc2oc(-c3ccc4c(c3)OCO4)cc2c1`, the Activity entry is “Non-Toxic”.

For `COc1cccc2cc(-c3ccc(F)cc3)oc12`, the Activity entry is “Non-Toxic”.

With `C=CC(=O)OCCCc1cc(OC)c2oc(-c3ccc4c(c3)OCO4)cc2c1`, the Activity result was “Non-Toxic”.

On to `COc1cc(CCCI)cc2cc(-c3ccc4c(c3)OCO4)oc12`, for which the Activity result is listed as “Non-Toxic”.

In the case of `COc1cc(CCC=O)cc2cc(-c3ccc4c(c3)OCO4)oc12`, the Activity entry was “Non-Toxic”.

As to `COc1cc(CCCBr)cc2cc(-c3ccc4c(c3)OCO4)oc12`, the Activity result is recorded as “Non-Toxic”.

With `COc1cc(CCCOC(=O)c2ccccc2)cc2cc(-c3ccc4c(c3)OCO4)oc12`, the Activity entry is “Non-Toxic”.

On to `COc1cc(CCCCl)cc2cc(-c3ccc4c(c3)OCO4)oc12`, for which the Activity entry was “Non-Toxic”.

As for `COc1cc(CCCOC(C)=O)cc2cc(-c3ccc4c(c3)OCO4)oc12` [EGONOL ACETATE], the Activity result is “Non-Toxic”.

For the molecule `CCCC(=O)OCCCc1cc(OC)c2oc(-c3ccc4c(c3)OCO4)cc2c1` [EGONOLBUTANOATE], the Activity result is “Non-Toxic”.

With `COc1cc(CCCO)cc2cc(-c3ccc4c(c3)OCO4)oc12` [EGONOL], the Activity entry is listed as “Non-Toxic”.

The nature of a further data set: Induction of estrogen biosynthesis in aromatase overexpressing HEK293A cells assessed as increase in 17beta-estradiol levels preincubated for 24 hrs followed by testosterone addition measured after 24 hrs by magnetic particle-based ELISA. It is filed as functional, cell-based. The following applies: Homo sapiens, HEK293-A. A general note: In an ELISA, binding on a coated surface is turned into a signal by an enzyme label.
By EC50 is commonly meant the concentration at which the effect is half-maximal. Take `c1ccc(-c2cc3ccccc3o2)cc1`: the EC50 stood at 15.5 µM.

Turning to `COc1cc(Cl)cc2cc(-c3ccc(F)cc3)oc12`, the EC50 was determined as 20.1 µM.

Consider `COc1ccc(-c2cc3cc(Br)cc(OC)c3o2)cc1`, for which the EC50 came to 20.9 µM.

On to `COc1cc(-c2cc3cc(Cl)ccc3o2)cc(OC)c1OC`, for which the EC50 was 29.4 µM.

`Clc1ccc2oc(-c3ccc(OCc4ccccc4)cc3)cc2c1`: the EC50 came out at 17.2 µM.

In the case of `COc1ccc(-c2cc3cc(Br)cc(OC)c3o2)cc1O`, the EC50 is 25.5 µM.

In the case of `Fc1ccc(-c2cc3ccccc3o2)cc1`, the EC50 worked out at 24.9 µM.

As to `COc1cccc2cc(-c3ccc(Cl)cc3)oc12`, the EC50 is 14.7 µM.

Regarding `COc1ccc(OC)c(-c2cc3cc(SC)cc(OC)c3o2)c1`, the EC50 stood at 19.4 µM.

For `COc1cccc(-c2cc3ccccc3o2)c1`, the EC50 was found to be 20.8 µM.

For the molecule `COc1cccc(-c2cc3cc(Cl)cc(Cl)c3o2)c1`, the EC50 was found to be 19.6 µM.

As for `COc1cc(CCCO)c(Br)c2cc(-c3ccc4c(c3)OCO4)oc12`, the EC50 was determined as 22.1 µM.

With `COc1cc(Br)cc2cc(-c3ccc([N+](=O)[O-])cc3)oc12`, the EC50 amounted to 30.9 µM.

In the case of `COc1cc(CCCO[C@@H]2O[C@H](CO[C@@H]3O[C@H](CO)[C@@H](O)[C@H](O)[C@H]3O)[C@@H](O)[C@H](O)[C@H]2O)cc2cc(-c3ccc4c(c3)OCO4)oc12`, the EC50 worked out at 15.7 µM.
